From patent US12247015B2, “3-amino-4H-benzo[e][1,2,4]thiadiazine 1,1-dioxide derivatives as inhibitors of MRGX2” (Solent Therapeutics, LLC, priority 2019, dated 2025) come the findings set out here.

SMILES strings stand for the structures.

The target in this experiment is hMRGX2 (CHO-K1 cells overexpressing MRGX2) (Homo sapiens (Human), UniProt Q96LB1). Put plainly: In vitro inhibition (EC50) of intracellular calcium flux, FLIPR Tetra, substance P stimulation. The conditions noted are these: stimulated with MRGX2 ligand substance P, FLIPR Calcium 5, read-out: hMRGX2 Cellular Potency (pEC50) (converted). Type of experiment: cell-based. The essentials: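 CHO-K1 cells overexpressing human MRGX2, loaded with Calcium 5 dye for 30 min at 37 °C, then given compound (11-point, top 10 μM).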
Chain of hMRGX2 (CHO-K1 cells overexpressing MRGX2) (Q96LB1 whole entry): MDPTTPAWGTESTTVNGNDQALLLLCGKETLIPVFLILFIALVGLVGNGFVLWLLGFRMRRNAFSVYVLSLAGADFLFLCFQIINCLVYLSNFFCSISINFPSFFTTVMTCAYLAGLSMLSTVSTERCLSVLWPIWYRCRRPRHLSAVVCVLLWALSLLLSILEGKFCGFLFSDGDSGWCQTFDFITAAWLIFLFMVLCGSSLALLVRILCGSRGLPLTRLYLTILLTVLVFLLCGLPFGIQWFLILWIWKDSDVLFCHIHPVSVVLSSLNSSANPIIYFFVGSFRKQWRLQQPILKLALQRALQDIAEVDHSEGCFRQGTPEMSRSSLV
Take `COCCNC1=NS(=O)(=O)c2cccc(-c3cccc(Cl)c3F)c2N1` [Example 135, 5-(3-chloro-2-fluorophenyl)-3-((2-methoxyethyl)amino)-4H-benzo[e][1,2,4]thiadiazine 1,1-dioxide]: the EC50 was 0.841 µM.
Take `CNC1=NS(=O)(=O)c2ccc(F)c(-c3ccccc3Cl)c2N1` [Example 138, 5-(2-chlorophenyl)-6-fluoro-3-(methylamino)-4H-benzo[e][1,2,4]thiadiazine 1,1-dioxide]: the EC50 was 0.19 µM.
In the case of `O=S1(=O)N=C(NCc2ccccn2)Nc2c(-c3cc(F)ccc3F)cccc21` [Example 139, 5-(2,5-difluorophenyl)-3-((pyridin-2-ylmethyl)amino)-4H-benzo[e][1,2,4]thiadiazine 1,1-dioxide], the EC50 was 0.246 µM.
As for `O=S1(=O)N=C(NCC2CC2)Nc2c(-c3cc(F)ccc3F)cccc21` [Example 140, 3-((cyclopropylmethyl)amino)-5-(2,5-difluorophenyl)-4H-benzo[e][1,2,4]thiadiazine 1,1-dioxide], the EC50 is 0.692 µM.
As for `COCCNC1=NS(=O)(=O)c2cccc(-c3cc(F)ccc3F)c2N1` [Example 141, 5-(2,5-difluorophenyl)-3-((2-methoxyethyl)amino)-4H-benzo[e][1,2,4]thiadiazine 1,1-dioxide], the EC50 is 0.366 µM.
Next, `COC(C)CNC1=NS(=O)(=O)c2cccc(-c3cc(F)ccc3F)c2N1` (stereo not drawn) [Example 142, 5-(2,5-difluorophenyl)-3-((2-methoxypropyl)amino)-4H-benzo[e][1,2,4]thiadiazine 1,1-dioxide]: 0.244 µM.
Turning to `CCNC1=NS(=O)(=O)c2cccc(-c3cc(F)ccc3F)c2N1` [Example 143, 5-(2,5-difluorophenyl)-3-(ethylamino)-4H-benzo[e][1,2,4]thiadiazine 1,1-dioxide], the EC50 was 0.443 µM.
For `COCCNC1=NS(=O)(=O)c2cccc(-c3cc(F)ccc3Cl)c2N1` [Example 144, 5-(2-chloro-5-fluorophenyl)-3-((2-methoxyethyl)amino)-4H-benzo[e][1,2,4]thiadiazine 1,1-dioxide], the EC50 was 0.216 µM.
Next, `COC(C)CNC1=NS(=O)(=O)c2cccc(-c3ccccc3C#N)c2N1` (stereo not drawn) [Example 145, 2-(3-((2-methoxypropyl)amino)-1,1-dioxido-4H-benzo[e][1,2,4]thiadiazin-5-yl)benzonitrile]: 0.141 µM.
As for `N#Cc1ccccc1-c1cccc2c1NC(NCC1CCC1)=NS2(=O)=O` [Example 146, 2-(3-((cyclobutylmethyl)amino)-1,1-dioxido-4H-benzo[e][1,2,4]thiadiazin-5-yl)benzonitrile], the EC50 is 0.162 µM.
For `O=S1(=O)N=C(NCc2cccc(F)n2)Nc2c(-c3cccc(F)c3Cl)cccc21` [Example 148, 5-(2-chloro-3-fluorophenyl)-3-(((6-fluoropyridin-2-yl)methyl)amino)-4H-benzo[e][1,2,4]thiadiazine 1,1-dioxide], the EC50 was 0.017 µM.
Next, `N#Cc1c(F)cccc1-c1cccc2c1NC(NCCF)=NS2(=O)=O` [Example 149, 2-fluoro-6-(3-((2-fluoroethyl)amino)-1,1-dioxido-4H-benzo[e][1,2,4]thiadiazin-5-yl)benzonitrile]: 0.32 µM; `COC(C)CNC1=NS(=O)(=O)c2cccc(-c3cccc(F)c3C#N)c2N1` (stereo not drawn) [Example 150, 2-fluoro-6-(3-((2-methoxypropyl)amino)-1,1-dioxido-4H-benzo[e][1,2,4]thiadiazin-5-yl)benzonitrile]: 0.416 µM.
As to `COCCCNC1=NS(=O)(=O)c2cccc(-c3cccc(F)c3Cl)c2N1` [Example 151, 5-(2-chloro-3-fluorophenyl)-3-((3-methoxypropyl)amino)-4H-benzo[e][1,2,4]thiadiazine 1,1-dioxide], the EC50 was 0.562 µM.
Turning to `O=S1(=O)N=C(NCCCF)Nc2c(-c3cccc(F)c3Cl)cccc21` [Example 152, 5-(2-chloro-3-fluorophenyl)-3-((3-fluoropropyl)amino)-4H-benzo[e][1,2,4]thiadiazine 1,1-dioxide], the EC50 was 0.223 µM.
As to `CO[C@@H](C)CCNC1=NS(=O)(=O)c2cccc(-c3cccc(F)c3Cl)c2N1` [Example 155, (S)-5-(2-chloro-3-fluorophenyl)-3-((3-methoxybutyl)amino)-4H-benzo[e][1,2,4]thiadiazine 1,1-dioxide], the EC50 was 0.0352 µM.
The result for `COCCNC1=NS(=O)(=O)c2cccc(-c3cccc(F)c3C3CC3)c2N1` [Example 156, 5-(2-cyclopropyl-3-fluorophenyl)-3-((2-methoxyethyl)amino)-4H-benzo[e][1,2,4]thiadiazine 1,1-dioxide] reads 0.0475 µM; that for `CNC1=NS(=O)(=O)c2cccc(-c3cccc(F)c3C3CC3)c2N1` [Example 157, 5-(2-cyclopropyl-3-fluorophenyl)-3-(methylamino)-4H-benzo[e][1,2,4]thiadiazine 1,1-dioxide], 0.0562 µM.
`CC(C)NC1=NS(=O)(=O)c2cccc(-c3cccc(F)c3Cl)c2N1` [Example 158, 5-(2-chloro-3-fluorophenyl)-3-(isopropylamino)-4H-benzo[e][1,2,4]thiadiazine 1,1-dioxide]: the EC50 was 0.229 µM.
The result for `O=S1(=O)N=C(NC2CC2)Nc2c(-c3cccc(F)c3Cl)cccc21` [Example 159, 5-(2-chloro-3-fluorophenyl)-3-(cyclopropylamino)-4H-benzo[e][1,2,4]thiadiazine 1,1-dioxide] reads 0.0536 µM; that for `O=S1(=O)N=C(NCCOCC(F)F)Nc2c(-c3cccc(F)c3Cl)cccc21` [Example 160, 5-(2-chloro-3-fluorophenyl)-3-((2-(2,2-difluoroethoxy)ethyl)amino)-4H-benzo[e][1,2,4]thiadiazine 1,1-dioxide], 0.0933 µM.
`N#Cc1c(F)cccc1-c1cccc2c1NC(NCc1ncco1)=NS2(=O)=O` [Example 161, 2-fluoro-6-(3-((oxazol-2-ylmethyl)amino)-1,1-dioxido-4H-benzo[e][1,2,4]thiadiazin-5-yl)benzonitrile]: the EC50 is 0.0615 µM.
Take `CCc1ccccc1-c1cccc2c1NC(NCCOC)=NS2(=O)=O` [Example 163, 5-(2-ethylphenyl)-3-((2-methoxyethyl)amino)-4H-benzo[e][1,2,4]thiadiazine 1,1-dioxide]: the EC50 is 0.18 µM.
Take `O=S1(=O)N=C(NCc2ccco2)Nc2c(-c3cc(F)cc(F)c3)cccc21` [Example 164, 5-(3,5-difluorophenyl)-3-((furan-2-ylmethyl)amino)-4H-benzo[e][1,2,4]thiadiazine 1,1-dioxide]: the EC50 is 0.225 µM.
As to `CCNC1=NS(=O)(=O)c2cccc(-c3cccc(F)c3F)c2N1` [Example 165, 5-(2,3-difluorophenyl)-3-(ethylamino)-4H-benzo[e][1,2,4]thiadiazine 1,1-dioxide], the EC50 was 0.288 µM.
In the case of `COC(C)CNC1=NS(=O)(=O)c2cccc(-c3cc(F)cc(F)c3)c2N1` (stereo not drawn) [Example 166, 5-(3,5-difluorophenyl)-3-((2-methoxypropyl)amino)-4H-benzo[e][1,2,4]thiadiazine 1,1-dioxide], the EC50 is 0.34 µM.
`COC1CC(NC2=NS(=O)(=O)c3cccc(-c4cccc(F)c4Cl)c3N2)C1` (stereo not drawn) [Example 167, 5-(2-chloro-3-fluorophenyl)-3-((3-methoxycyclobutyl)amino)-4H-benzo[e][1,2,4]thiadiazine 1,1-dioxide]: the EC50 was 0.394 µM.
